Reference: PubChem BioAssay AID1259407 (Chemical Carcinogenesis Research Information System (CCRIS), 2018)
Activity calls are given as the source filed them. How the calls were made is not given here.

Test system: CCRIS mutagenicity, Ames/micronucleus/aberration tests
Test: CCRIS mutagenicity studies
[1] = Test System: AMES SALMONELLA TYPHIMURIUM, Strain/Indicator: TA98, Metabolic Activation: NONE, Method: STANDARD PLATE
[2] = Test System: AMES SALMONELLA TYPHIMURIUM, Strain/Indicator: TA100, Metabolic Activation: NONE, Method: STANDARD PLATE
[3] = Test System: AMES SALMONELLA TYPHIMURIUM, Strain/Indicator: TA1535, Metabolic Activation: NONE, Method: STANDARD PLATE
[4] = Test System: AMES SALMONELLA TYPHIMURIUM, Strain/Indicator: TA1537, Metabolic Activation: NONE, Method: STANDARD PLATE
[5] = Test System: AMES SALMONELLA TYPHIMURIUM, Strain/Indicator: TA98, Metabolic Activation: RAT, LIVER, S-9, AROCLOR 1254, Method: STANDARD PLATE
[6] = Test System: AMES SALMONELLA TYPHIMURIUM, Strain/Indicator: TA100, Metabolic Activation: RAT, LIVER, S-9, AROCLOR 1254, Method: STANDARD PLATE
[7] = Test System: AMES SALMONELLA TYPHIMURIUM, Strain/Indicator: TA1535, Metabolic Activation: RAT, LIVER, S-9, AROCLOR 1254, Method: STANDARD PLATE
[8] = Test System: AMES SALMONELLA TYPHIMURIUM, Strain/Indicator: TA1537, Metabolic Activation: RAT, LIVER, S-9, AROCLOR 1254, Method: STANDARD PLATE
[9] = Test System: AMES SALMONELLA TYPHIMURIUM, Strain/Indicator: TA98, Metabolic Activation: NONE, Method: PREINCUBATION

O=C1c2ccc3nc(-c4ccccc4)sc3c2C(=O)c2ccc3nc(-c4ccccc4)sc3c21
mutagenic call (Test System: AMES SALMONELLA TYPHIMURIUM, Strain/Indicator: TA98, Metabolic Activation: HAMSTER, LIVER, S-9, AROCLOR 1254 (10%), Method: STANDARD PLATE): inactive; negative | mutagenic call [1]: inactive; negative | mutagenic call (Test System: AMES SALMONELLA TYPHIMURIUM, Strain/Indicator: TA98, Metabolic Activation: RAT, LIVER, S-9, AROCLOR 1254 (10%), Method: STANDARD PLATE): inactive; negative | mutagenic call (Test System: AMES SALMONELLA TYPHIMURIUM, Strain/Indicator: TA100, Metabolic Activation: HAMSTER, LIVER, S-9, AROCLOR 1254 (10%), Method: STANDARD PLATE): inactive; negative | mutagenic call [2]: inactive; negative | mutagenic call (Test System: AMES SALMONELLA TYPHIMURIUM, Strain/Indicator: TA100, Metabolic Activation: RAT, LIVER, S-9, AROCLOR 1254 (10%), Method: STANDARD PLATE): inactive; negative | mutagenic call (Test System: AMES SALMONELLA TYPHIMURIUM, Strain/Indicator: TA1535, Metabolic Activation: HAMSTER, LIVER, S-9, AROCLOR 1254 (10%), Method: STANDARD PLATE): inactive; negative | mutagenic call [3]: inactive; negative | mutagenic call (Test System: AMES SALMONELLA TYPHIMURIUM, Strain/Indicator: TA1535, Metabolic Activation: RAT, LIVER, S-9, AROCLOR 1254 (10%), Method: STANDARD PLATE): inactive; negative | mutagenic call (Test System: AMES SALMONELLA TYPHIMURIUM, Strain/Indicator: TA1537, Metabolic Activation: HAMSTER, LIVER, S-9, AROCLOR 1254 (10%), Method: STANDARD PLATE): inactive; negative | mutagenic call [4]: inactive; negative | mutagenic call (Test System: AMES SALMONELLA TYPHIMURIUM, Strain/Indicator: TA1537, Metabolic Activation: RAT, LIVER, S-9, AROCLOR 1254 (10%), Method: STANDARD PLATE): inactive; negative | mutagenic call (Test System: AMES SALMONELLA TYPHIMURIUM, Strain/Indicator: TA1538, Metabolic Activation: HAMSTER, LIVER, S-9, AROCLOR 1254 (10%), Method: STANDARD PLATE): inactive; negative | mutagenic call (Test System: AMES SALMONELLA TYPHIMURIUM, Strain/Indicator: TA1538, Metabolic Activation: NONE, Method: STANDARD PLATE): inactive; negative | mutagenic call (Test System: AMES SALMONELLA TYPHIMURIUM, Strain/Indicator: TA1538, Metabolic Activation: RAT, LIVER, S-9, AROCLOR 1254 (10%), Method: STANDARD PLATE): inactive; negative | mutagenic call (Test System: MOUSE LYMPHOMA, Strain/Indicator: L5178Y (TK+/TK-), Metabolic Activation: NONE, Method: SUSPENSION/PLATE): inactive; negative | mutagenic call (Test System: MOUSE LYMPHOMA, Strain/Indicator: L5178Y (TK+/TK-), Metabolic Activation: RAT, LIVER, S-9, AROCLOR 1254, Method: SUSPENSION/PLATE): active; positive

Brc1ccc(-c2ccc(Br)c(Br)c2)cc1Br
mutagenic call (Test System: CHINESE HAMSTER V-79, Strain/Indicator: V-79 (HGPRT)/6-THIOGUANINE, Metabolic Activation: NONE): inactive; negative | mutagenic call (Test System: CHINESE HAMSTER V-79, Strain/Indicator: V-79 (HGPRT)/6-THIOGUANINE, Metabolic Activation: RAT, LIVER, S-9, AROCLOR 1254): inactive; negative

Oc1ccc(O)c2c(O)c3ccccc3c(O)c12
mutagenic call [1]: inactive; negative | mutagenic call [5]: inactive; negative | mutagenic call [2]: inactive; negative | mutagenic call [6]: inactive; negative | mutagenic call [3]: inactive; negative | mutagenic call [7]: inactive; negative | mutagenic call [4]: active; positive | mutagenic call [8]: active; positive | mutagenic call (Test System: AMES SALMONELLA TYPHIMURIUM, Strain/Indicator: TA1538, Metabolic Activation: RAT, LIVER, S-9, AROCLOR 1254, Method: STANDARD PLATE): inactive; negative

Cc1cccc(C2CO2)c1 (configuration not stated)
mutagenic call (Test System: E. COLI, Strain/Indicator: WP2 UVRA, Metabolic Activation: NONE, Method: STANDARD PLATE): active; positive

O=[N+]([O-])c1cccc2cn[nH]c12
mutagenic call [1]: active; positive

O=NN(c1ccc([N+](=O)[O-])cc1)C1OC[C@@H](O)[C@H](O)[C@H]1O (some centres not stated)
mutagenic call [2]: active; positive

O=C(O)Cc1ccc([N+](=O)[O-])cc1
mutagenic call [9]: active; positive | mutagenic call (Test System: AMES SALMONELLA TYPHIMURIUM, Strain/Indicator: TA100, Metabolic Activation: NONE, Method: PREINCUBATION): active; positive | mutagenic call (Test System: AMES SALMONELLA TYPHIMURIUM, Strain/Indicator: TA1535, Metabolic Activation: NONE, Method: PREINCUBATION): inactive; negative | mutagenic call (Test System: AMES SALMONELLA TYPHIMURIUM, Strain/Indicator: TA1537, Metabolic Activation: NONE, Method: PREINCUBATION): inactive; negative | mutagenic call (Test System: AMES SALMONELLA TYPHIMURIUM, Strain/Indicator: TA1538, Metabolic Activation: NONE, Method: PREINCUBATION): inactive; negative

Cc1ccc(NS(=O)(=O)c2cccc3cccnc23)cc1
mutagenic call [1]: inactive; negative | mutagenic call [5]: inactive; negative | mutagenic call [2]: inactive; negative | mutagenic call [6]: inactive; negative | mutagenic call [3]: inactive; negative | mutagenic call [7]: inactive; negative | mutagenic call [4]: inactive; negative | mutagenic call [8]: inactive; negative

Nc1ccc(Nc2ccc([N+](=O)[O-])cc2)cc1
mutagenic call (Test System: AMES SALMONELLA TYPHIMURIUM, Strain/Indicator: TA98(NR), Metabolic Activation: NONE, Method: PREINCUBATION): inactive; negative | mutagenic call [9]: active; positive | mutagenic call (Test System: AMES SALMONELLA TYPHIMURIUM, Strain/Indicator: TA98, Metabolic Activation: RAT, LIVER, S-9, AROCLOR 1254, Method: PREINCUBATION): active; positive
